Measurements from BindingDB's records for doi:10.1016/j.bioorg.2016.07.006 (Dumlupinar University, 2016).

How the values were obtained:
Carbonic anhydrase 2 = Carbonic anhydrase 2 (Homo sapiens, UniProt P00918); assay: In vitro Carbonic Anhydrase Inhibition Assay
Experimental: (§1) CA activity was measured according to the method described by Verpoorte et al. in inhibition studies, spectrophotometrically [Biochem., 242:4221-4229]. The reaction mixture contains 50 mM Tris-SO4 buffer (pH = 7.4), 3 mM 4-nitrophenylacetate and enzyme solution in 1 ml total volume. A reference measurement was done by using the same cuvette without enzyme solution. The measurement was repeated in triplicate at each concentration of 5-amino-1,3,4-thiadiazole-2-sulfonamide containing pyrazole derivatives.

Carbonic anhydrase 1 = Carbonic anhydrase 1 (Homo sapiens, UniProt P00915); assay: In vitro Carbonic Anhydrase Inhibition Assay
Chain of Carbonic anhydrase 1 (P00915 whole entry): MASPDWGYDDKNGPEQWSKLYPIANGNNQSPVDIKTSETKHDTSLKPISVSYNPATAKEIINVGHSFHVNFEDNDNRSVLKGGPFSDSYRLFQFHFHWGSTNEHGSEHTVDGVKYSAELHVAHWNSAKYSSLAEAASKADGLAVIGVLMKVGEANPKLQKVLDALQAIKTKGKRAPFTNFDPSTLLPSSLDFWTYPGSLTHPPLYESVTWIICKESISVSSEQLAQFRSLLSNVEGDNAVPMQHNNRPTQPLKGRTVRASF
Experimental: as §1

Row | SMILES | Ki (Carbonic anhydrase 2) [nM] | Ki (Carbonic anhydrase 1) [nM]
1 | NS(=O)(=O)c1nnc(NC(=O)c2nn(-c3cccc(NN=C(C(=O)c4ccccc4)C(=O)c4ccccc4)c3)c(-c3ccccc3)c2C(=O)Nc2nnc(S(N)(=O)=O)s2)s1 [1-(3-(2-(1,3-Dioxo-1,3-diphenylpropan-2-ylidene)hydrazinyl)phenyl)-5-phenyl-N3,N4-bis(5-sulfamoyl-1,3,4-thiadiazol-2-yl)-1Hpyrazole-3,4-dicarboxamide (8)] | 878 | 4000
2 | CC(=O)C(=NNc1cccc(-n2nc(C(=O)Nc3nnc(S(N)(=O)=O)s3)c(C(=O)Nc3nnc(S(N)(=O)=O)s3)c2-c2ccccc2)c1)C(C)=O [1-(3-(2-(2,4-Dioxopentan-3-ylidene)hydrazinyl)phenyl)-5-phenyl-N3,N4-bis(5-sulfamoyl-1,3,4-thiadiazol-2-yl)-1H-pyrazole-3,4-dicarboxamide (5)] | 494 | 767
3 | CC1(C)CC(=O)C(=NNc2cccc(-n3nc(C(=O)Nc4nnc(S(N)(=O)=O)s4)c(C(=O)Nc4nnc(S(N)(=O)=O)s4)c3-c3ccccc3)c2)C(=O)C1 [1-(3-((2-Hydroxy-4,4-dimethyl-6-oxocyclohex-1-en-1-yl)diazenyl)phenyl)-5-phenyl-N3,N4-bis(5-sulfamoyl-1,3,4-thiadiazol-2-yl)-1H-pyrazole-3,4-dicarboxamide (14)] | 288 | 787
4 | NS(=O)(=O)c1nnc(NC(=O)c2nn(-c3cccc(/N=N/c4c(O)ccc5ccccc45)c3)c(-c3ccccc3)c2C(=O)Nc2nnc(S(N)(=O)=O)s2)s1 [1-(3-((2-Hydroxynaphthalen-1-yl)diazenyl)phenyl)-5-phenyl-N3,N4-bis(5-sulfamoyl-1,3,4-thiadiazol-2-yl)-1H-pyrazole-3,4-dicarboxamide (4)] | 411 | 1660
5 | CCOC(=O)/C(=N\Nc1cccc(-n2nc(C(=O)Nc3nnc(S(N)(=O)=O)s3)c(C(=O)Nc3nnc(S(N)(=O)=O)s3)c2-c2ccccc2)c1)C(C)=O [Ethyl 3-oxo-2-(2-(3-(5-phenyl-3,4-bis((5-sulfamoyl-1,3,4-thiadiazol-2-yl)carbamoyl)-1H-pyrazol-1-yl)phenyl)hydrazono)butanoate (7)] | 208 | 710
6 | CCOC(=O)/C(=N\Nc1cccc(-n2nc(C(=O)Nc3nnc(S(N)(=O)=O)s3)c(C(=O)Nc3nnc(S(N)(=O)=O)s3)c2-c2ccccc2)c1)C(=O)c1ccccc1 [Ethyl 3-oxo-3-phenyl-2-(2-(3-(5-phenyl-3,4-bis((5-sulfamoyl-1,3,4-thiadiazol-2-yl)carbamoyl)-1H-pyrazol-1-yl)phenyl)hydrazono)propanoate (9)] | 435 | 487

Now from value to molecule:

Row | Ki (Carbonic anhydrase 2) [nM] | Ki (Carbonic anhydrase 1) [nM] | SMILES
7 | 119 | 119 | CC(=O)/C(=N/Nc1cccc(-n2nc(C(=O)Nc3nnc(S(N)(=O)=O)s3)c(C(=O)Nc3nnc(S(N)(=O)=O)s3)c2-c2ccccc2)c1)C(=O)c1ccccc1 [1-(3-(2-(1,3-Dioxo-1-phenylbutan-2-ylidene)hydrazinyl)phenyl)-5-phenyl-N3,N4-bis(5-sulfamoyl-1,3,4-thiadiazol-2-yl)-1H-pyrazole-3,4-dicarboxamide (6)]
8 | 157 | 508 | NS(=O)(=O)c1nnc(NC(=O)c2nn(-c3cccc(NN=C4C(=O)CCCC4=O)c3)c(-c3ccccc3)c2C(=O)Nc2nnc(S(N)(=O)=O)s2)s1 [1-(3-((2-Hydroxy-6-oxocyclohex-1-en-1-yl)diazenyl)phenyl)-5-phenyl-N3,N4-bis(5-sulfamoyl-1,3,4-thiadiazol-2-yl)-1H-pyrazole-3,4-dicarboxamide (13)]
9 | 203 | 461 | CCOC(=O)C(=NNc1cccc(-n2nc(C(=O)Nc3nnc(S(N)(=O)=O)s3)c(C(=O)Nc3nnc(S(N)(=O)=O)s3)c2-c2ccccc2)c1)C(=O)OCC [Diethyl 2-(2-(3-(5-phenyl-3,4-bis((5-sulfamoyl-1,3,4-thiadiazol-2-yl)carbamoyl)-1H-pyrazol-1-yl)phenyl)hydrazono)malonate (10)]
10 | 84 | 246 | CCCC(=O)/C(=N/Nc1cccc(-n2nc(C(=O)Nc3nnc(S(N)(=O)=O)s3)c(C(=O)Nc3nnc(S(N)(=O)=O)s3)c2-c2ccccc2)c1)C(=O)OCC [Ethyl 3-oxo-2-(2-(3-(5-phenyl-3,4-bis((5-sulfamoyl-1,3,4-thiadiazol-2-yl)carbamoyl)-1H-pyrazol-1-yl)phenyl)hydrazono)hexanoate (11)]
11 | 92 | 318 | COC(=O)C(/N=N/c1cccc(-n2nc(C(=O)Nc3nnc(S(N)(=O)=O)s3)c(C(=O)Nc3nnc(S(N)(=O)=O)s3)c2-c2ccccc2)c1)S(=O)(=O)c1ccccc1 (centres undefined) [Methyl 2-((3-(5-phenyl-3,4-bis((5-sulfamoyl-1,3,4-thiadiazol-2-yl)carbamoyl)-1H-pyrazol-1-yl)phenyl)diazenyl)-2-(phenylsulfonyl)acetate (15)]
12 | 149 | 522 | CC(=O)/C(=N/Nc1cccc(-n2nc(C(=O)Nc3nnc(S(N)(=O)=O)s3)c(C(=O)Nc3nnc(S(N)(=O)=O)s3)c2-c2ccccc2)c1)C(=O)OC(C)(C)C [tert-Butyl 3-oxo-2-(2-(3-(5-phenyl-3,4-bis((5-sulfamoyl-1,3,4-thiadiazol-2-yl)carbamoyl)-1H-pyrazol-1-yl)phenyl)hydrazono)butanoate (12)]
